According to patent publication US20070142478A1, “COMBINATION ANTIMICROBIAL COMPOSITION AND METHOD OF USE” (priority 2005, published 2007):
“Also recorded” adds a separate entry of the source.

Experiments:
[1] = system: Herpes simplex virus type 1; experiment: Viral Suspension Assay, HSV-1; assay type: cell-based; details: 30 ppm and 99 ppm
Experimental: (§1) The Viral Suspension Assay was used to evaluate the antiviral properties of Alexidine against Herpes simplex virus type 1 when exposed in suspension for 1, 2, 5, and 10 minutes. The presence of virus (infectivity) was determined by monitoring the virus specific cytopathic effect (CPE) on an appropriate indicator cell line, rabbit kidney. Results are reported as Percent (%) Reduction in virus titer as compared to the corresponding virus control titer (Table 1). The titer of the virus controls were 7.5 log10 following the one minute exposure time; 7.0 log10 following the two minute exposure time; and 7.75 log10 following both the five and ten minute exposure times.

Adenovirus Type-4 = experiment: Viral Suspension Assay, Adenovirus Type-4; assay type: cell-based
Experimental: as §1, with “Adenovirus Type-4, Adenovirus Type-8 and Adenovirus Type-19 and Cytomegalovirus” for “Herpes simplex virus type 1”

Adenovirus Type-8 = experiment: Viral Suspension Assay, Adenovirus Type-8; assay type: cell-based
Experimental: as §1, with “Adenovirus Type-4, Adenovirus Type-8 and Adenovirus Type-19 and Cytomegalovirus” for “Herpes simplex virus type 1”

Adenovirus Type-19 = experiment: Viral Suspension Assay, Adenovirus Type-19; assay type: cell-based
Experimental: as §1, with “Adenovirus Type-4, Adenovirus Type-8 and Adenovirus Type-19 and Cytomegalovirus” for “Herpes simplex virus type 1”

Cytomegalovirus = experiment: Viral Suspension Assay, Cytomegalovirus; assay type: cell-based; details: 30 ppm and 99 ppm
Experimental: as §1, with “Adenovirus Type-4, Adenovirus Type-8 and Adenovirus Type-19 and Cytomegalovirus” for “Herpes simplex virus type 1”

Aspergillus = details: 0.02%; cited from earlier work

Compound | Effectiveness against HSV-1 (in words) [1] | Effectiveness against Adenovirus Type-4 (in words) (Adenovirus Type-4; 30 ppm and 99 ppm) | Percent Reduction (%) (Adenovirus Type-4; Alexidine 30 ppm, 1 minute) | Percent Reduction (%) (Adenovirus Type-4; Alexidine 30 ppm, 10 minutes) | Percent Reduction (%) (Adenovirus Type-4; Alexidine 99 ppm, 1 minute) | Percent Reduction (%) (Adenovirus Type-4; Alexidine 99 ppm, 5 minutes) | Percent Reduction (%) (Adenovirus Type-4; Alexidine 99 ppm, 10 minutes) | Effectiveness against Adenovirus Type-8 (in words) (Adenovirus Type-8; 30 ppm and 99 ppm) | Percent Reduction (%) (Adenovirus Type-8; Alexidine 30 ppm, 10 minutes) | Percent Reduction (%) (Adenovirus Type-8; Alexidine 99 ppm, 5 minutes) | Percent Reduction (%) (Adenovirus Type-8; Alexidine 99 ppm, 10 minutes) | Percent Reduction (%) (Adenovirus Type-19; Alexidine 30 ppm and 99 ppm, 1, 2, 5 and 10 minutes) | Effectiveness against Adenovirus Type-19 (in words) (Adenovirus Type-19; particular strain tested) | Effectiveness against Cytomegalovirus (in words) (Cytomegalovirus) | Effectiveness in experimental Aspergillus keratitis (in words) (Aspergillus)
CCCCC(CC)CNC(=N)NC(=N)NCCCCCCNC(=N)NC(=N)NCC(CC)CCCC (stereo not drawn) [Alexidine, 1,1′-hexamethylene-bis[5-(2-ethylhexyl)biguanide]] | effective agents; also recorded: potent antimicrobial agent | somewhat effective | 43.8 | 68.4 | 68.4 | 43.8 | 68.4 | somewhat effective | 90.0 | 90.0 | 90.0 | No reduction | did not appear to be effective | somewhat effective | –
polyhexamethylene biguanide | – | – | – | – | – | – | – | – | – | – | – | – | – | – | moderately effective
